# Measurements published in US12344899B2, “Compositions and methods for therapeutics prescreening” (TECHNION RESEARCH & DEVELOPMENT FOUNDATION LIMITED, priority 2014, dated 2025).
# Entries after “also recorded” stand apart in the source; their conditions may differ.
# Assays:
# [1] = system: 4T1 breast cancer primary tumor; test: Barcoded nanoparticles with different drugs injected simultaneously i.v.; barcode levels in live/dead tumor cells (FIG. 8); assay type: in vivo, BALB/c mice; conditions: for therapeutic effect rated from barcode distribution / drug barcode levels in the dead cells in comparison to the live cells: tumor biopsy 48 hours later; for therapeutic effect rated from barcode distribution: FIGS. 8A-E; for drug barcode levels in the dead cells in comparison to the live cells: cells sorted live/dead
# Method: Barcoded nanoparticles containing control compounds or different drugs: placebo (A), caffeine (B), Cisplatin (C), Doxorubicin (D) and Gemcitabine (E), were injected simultaneously intravenously to BALB/c mice bearing a primary tumor in the hind thigh. 48 hours later, enabling the particle to accumulate in the tumor and perform the therapeutic activity, a biopsy was taken from the tumor. The biopsy tissue was then dissociated into a single-cell suspension, and the cells were screened according to their viability (live/dead). […] (F) The potency of the drugs was calculated by dividing the number of barcodes extracted from dead cells by the number of barcodes extracted from live cells for each drug. The values are presented in logarithmic scale.
# In vivo transfection: 100 μl of 10^6cells/ml of 4T1 (breast cancer) was injected subcutaneous to 10 weeks balb/c female mice. About […] later (when the primary tumor was massive enough), 100 μl of liposome solution was injected intravenous. 36 hrs later, the mouse was sacrificed and its organs (+tumor) were taken in ice for further steps.
# In the present study, ovarian tumors are expanded in hESC teratomas in SCID/beige mice, as previously described (Burgos-Ojeda, ibid.). Barcoded nanoparticles loaded with anti-cancer drugs are administered intravenously. Evaluation of the therapeutic task of the nanoparticle is evaluated after 48 hours which enables accumulation in the tumor and carrying out a therapeutic task. […] Post-mortem histological evaluation of the tissue is used to study the tumor bio-distribution. A biopsy sample is then dissociated into a single-cell suspension and the cells are sorted, using antibodies, according to cell subpopulation (including, CD45, CD11B, F4/80, CD13, REST) and viability (live/dead).
# Barcoded nanoparticles containing five different drugs or control compounds (FIG. 8 depicts Placebo, Caffeine, Cisplatin, Doxorubicin and Gemcitabine), were injected simultaneously intravenously to BALB/c mice bearing a primary tumor in the hind thigh. 48 hours later, a biopsy was taken from the tumor. The biopsy tissue was then dissociated into a single-cell suspension, and the cells were screened according to their viability (live/dead).
# 4T1 breast cancer tumor = test: Therapeutic treatment validating the barcoding analysis (FIG. 9); assay type: in vivo, mice; conditions: for proliferation index (anti-Ki67 immunohistochemistry): tumors extracted 24 days after starting treatment, 125 mg/kg Gemcitabine i.v. weekly
# Text: FIG. 9A-D. Therapeutic efficacy based on barcoding analysis. FIGS. 9A-B and D are bar graphs comparing tumor volume change between different therapeutic groups. Each group got a weekly dose of chemo drug Doxorubicin, Cisplatin, or Gemcitabine. The control group got saline. Representative tumor dimensions of each group. The tumor was extracted […] after starting the treatment. Tumor/Body weight of each group.
# To validate the barcoding analysis of the three chemotherapeutic drugs—Doxorubicin, Cisplatin and Gemcitabine, therapeutic treatment was conducted. The experiment included 4 groups, each containing 6 mice. Each group was treated with single drug for 24 days, starting 10 days post tumor induction. Each dose was given intravenous once a week. Each group was treated with either 5 mg/kg of Doxorubicin, 6 mg/kg of Cisplatin, 125 mg/kg of Gemcitabine or 100 μl of saline as a control. Tumors volumes were measured with caliper and calculated as length/2*(width)^2. […] 24 days after starting the treatment, the tumor of each mouse was extracted for further analysis. […] The tumor weight parameter reflects the effectiveness of the drug to inhibit and damage the tumor growth. The body weight parameter reflects the influence of the drug on the body or how severe are the side effects of the drug. […] To check differences in the tissue level between the different groups, all the tumors were studied histologically. Tissue slides from the tumors were stained with hematoxylin and eosin. […] Additionally, tissue slides were immunohistochemically stained with rabbit monoclonal anti-Ki67 antibody (SP6; Thermo Scientific, Fremont, Calif.) to determine proliferation index (not shown).
# [2] = 5 mg/kg Doxorubicin, 6 mg/kg Cisplatin
compound,measurement,setting,value
COc1cccc2c1C(=O)c1c(O)c3c(c(O)c1C2=O)C[C@@](O)(C(=O)CO)C[C@@H]3O[C@H]1C[C@H](N)[C@H](O)[C@H](C)O1 [Doxorubicin],therapeutic effect rated from barcode distribution,[1]; drug in barcoded nanoparticles,clear therapeutic effect
same,proliferation index (anti-Ki67 immunohistochemistry),4T1 breast cancer tumor; [2],90%
Nc1ccn([C@@H]2O[C@H](CO)[C@@H](O)C2(F)F)c(=O)n1 [Gemcitabine],"barcodes accumulated in the dead cells, more compare to the live cells","[1]; drug in barcoded nanoparticles, 48 hours, FIG. 8(E)","6,000"
same,therapeutic effect rated from barcode distribution,[1]; drug in barcoded nanoparticles,more effective than cisplatin; also recorded: most efficient drug
same,drug barcode levels in the dead cells in comparison to the live cells,[1],Elevated levels
same,tumor/body weight ratio,"4T1 breast cancer tumor; at sacrifice, FIG. 9(C), weekly i.v. dosing",minimum tumor/body weight ratio
same,tumor volume change / tumor growth,"4T1 breast cancer tumor; i.v. once a week for 24 days, 5 mg/kg Doxorubicin, 6 mg/kg Cisplatin, 125 mg/kg Gemcitabine, FIG. 9(A)",significantly attenuated the growth of the tumors
same,proliferation index (anti-Ki67 immunohistochemistry),4T1 breast cancer tumor; [2],40%
Cn1c(=O)c2c(ncn2C)n(C)c1=O [Caffeine],therapeutic effect rated from barcode distribution,[1]; drug in barcoded nanoparticles,almost no effect
N.N.[Cl][Pt][Cl] [Cisplatin],therapeutic effect rated from barcode distribution,[1]; drug in barcoded nanoparticles,clear therapeutic effect
same,drug barcode levels in the dead cells in comparison to the live cells,[1],Elevated levels
same,proliferation index (anti-Ki67 immunohistochemistry),4T1 breast cancer tumor; [2],65%
